Test system: pediatric AML patients
Assay: AML02 multicenter clinical trial, LDAC vs HDAC induction arms: MRD1, EFS and OS overall and by ACS10 score
Assay type: in vivo, human
Set-up: 3-year EFS / 4-year OS / 5-year OS / 4-year EFS / 5-year EFS / 3-year OS: unit not given here
Settings: for 3-year EFS / 3-year OS / 4-year EFS / 4-year OS / 5-year EFS / 5-year OS / EFS HR for each one-point increase in ACS10: risk-adjusted Cox model; for Event-free Survival 5 years / Overall Survival 5 years: AML02 cohort; for 5 year EFS / five-year OS: low ACS10 score (≤0) patients; for 5 year EFS / five-year OS / EFS HR, low-ACS10 vs high-ACS10 score / OS HR, low-ACS10 vs high-ACS10 score / EFS HR for each one-point increase in ACS10: AML02; for MRDIND1 Negative (<0.1%) / MRDIND1 Positive (>=0.1%): number of patients per arm, after induction 1, AML02 cohort; for EFS HR, low-ACS10 vs high-ACS10 score / OS HR, low-ACS10 vs high-ACS10 score / EFS HR for each one-point increase in ACS10: within arm
Procedure: One hundred and sixty-six pediatric AML patients treated under the multicenter AML02 clinical trial protocol were included in the study. Details of study design and clinical outcome have been described elsewhere. Briefly, patients with de novo AML were randomized to receive either high (3 g/m^2, given every 12 h on days 1, 3, and 5; this condition is designated “HDAC”) or low dose (100 mg/m^2 given every 12 h on days 1-10; this condition is designated “LDAC”) cytarabine along with daunorubicin (50 mg/m^2 on days 2, 4 and 6) and etoposide (100 mg/m^2 on days 2-6) as a first course of chemotherapy with subsequent treatment tailored to response and risk classification. For initial risk assignment, patients with cytogenetic translocations comprisingt [8;21] (e.g., translocation between chromosome 8 and 21), inv (16), ort [9;11] were classified as low-risk. Patients with features such as deletion of chromosome 7 (−7), presence of FLT3-ITD mutation (FLT-ITD), cytogenetic translocation comprisingt [6;9], megakaryoblastic leukemia (AMKL), treatment-related AML, or AML arising from MDS were classified as high-risk AML. Patients lacking any of the low or high-risk group features were provisionally classified as standard risk AML. Patient risk classifications were updated on the basis of minimal residual disease evaluations. Clinical endpoints used in this evaluation were defined as follows: i) Minimal residual disease after induction 1 (“MRD1”) (patients were defined as MRD positive if they had ≥1 leukemic cell per 1000 mononuclear bone marrow cells (≥0.1%); ii) Complete remission defined as trilineage hematopoietic recovery with less than 5% blasts in the marrow; iii) Event-free survival (“EFS”) defined as the time from study enrollment to induction failure, relapse, secondary malignancy, death, or study withdrawal for any reason, with event-free patients censored on the date of last follow-up; and iv) Overall survival (“OS”) defined as the time from study enrollment to death, with living patients censored on the date of last follow-up. St. Jude Institutional Review Board approved the study, and informed consent was obtained from parents/guardians and consents/assents from the individuals.
The association of MRD1, EFS, and OS was evaluated with ACS10 scores in the AML02 discovery cohort and the AAML0531 validation cohort. The Kaplan-Meier method was used to estimate the EFS and OS probabilities for well-defined groups of patients. Cox regression models were used to associate ACS10 with EFS and OS and used logistic regression models to associate ACS10 with MRD1. The Wilcoxon rank-sum test and Kruskal-Wallis test were used to compare medians of numeric variables across groups. Chi-square tests and Fisher's exact test were used to evaluate the association among pairs of categorical variables. All p-values are two-sided. All statistical analyses were performed using R software (www.r-project.org).
The multicenter AML02 clinical trial randomly assigned subjects to receive low dose ara-C (LDAC: 100 mg/m^2; n=91 patients) or high dose ara-C(HDAC: 3 g/m^2; n=75 patients) in combination with daunorubicin and etoposide as the first course of chemotherapy as described above in patient cohort section. Thus, the association of SNPs with outcome within each arm separately was also explored (Table 5).
Given patients in AML02 cohort were randomized to receive low or augmented high dose of ara-C, this unique opportunity was leveraged to evaluate performance of ACS10 score within the different ara-C dose treatment arms (of note LDAC and HDAC arms had similar distribution of patients across, disease characteristics, risk group, cytogenetics, race, gender etc. Table 3). […]

[1] = patients with ACS10 score of +5, risk-adjusted Cox model
[2] = patients with ACS10 score of −5, risk-adjusted Cox model

Compound: Nc1ccn([C@@H]2O[C@H](CO)[C@@H](O)[C@@H]2O)c(=O)n1 [LDAC, cytarabine]
- 3-year EFS (ACS10 score 0): 0.5527
- 3-year OS (ACS10 score 0): 0.7030
- 4-year EFS (ACS10 score 0): 0.5391
- 4-year OS (ACS10 score 0): 0.6960
- 5-year EFS (ACS10 score 0): 0.5316
- 5-year OS (ACS10 score 0): 0.6960
- 3-year EFS (ACS10 score 1): 0.6541
- 3-year OS (ACS10 score 1): 0.7604
- 4-year EFS (ACS10 score 1): 0.6423
- 4-year OS (ACS10 score 1): 0.7544
- 5-year EFS (ACS10 score 1): 0.6357
- 5-year OS (ACS10 score 1): 0.7544
- 3-year EFS (ACS10 score 2): 0.7393
- 3-year OS (ACS10 score 2): 0.8089
- 4-year EFS (ACS10 score 2): 0.7296
- 4-year OS (ACS10 score 2): 0.8039
- 5-year EFS (ACS10 score 2): 0.7242
- 5-year OS (ACS10 score 2): 0.8039
- 3-year EFS (ACS10 score 3): 0.8073
- 3-year OS (ACS10 score 3): 0.8489
- 4-year EFS (ACS10 score 3): 0.7997
- 4-year OS (ACS10 score 3): 0.8448
- 5-year EFS (ACS10 score 3): 0.7955
- 5-year OS (ACS10 score 3): 0.8448
- 3-year EFS (ACS10 score 4): 0.8596
- 3-year OS (ACS10 score 4): 0.8814
- 4-year EFS (ACS10 score 4): 0.8539
- 4-year OS (ACS10 score 4): 0.8781
- 5-year EFS (ACS10 score 4): 0.8507
- 5-year OS (ACS10 score 4): 0.8781
- 3-year EFS (ACS10 score 5): 0.8988
- 3-year OS (ACS10 score 5): 0.9074
- 4-year EFS (ACS10 score 5): 0.8946
- 4-year OS (ACS10 score 5): 0.9048
- 5-year EFS (ACS10 score 5): 0.8922
- 5-year OS (ACS10 score 5): 0.9048
- 3-year EFS (ACS10 score −1): 0.4399
- 3-year OS (ACS10 score −1): 0.6369
- 4-year EFS (ACS10 score −1): 0.4255
- 4-year OS (ACS10 score −1): 0.6289
- 5-year EFS (ACS10 score −1): 0.4176
- 5-year OS (ACS10 score −1): 0.6289
- 3-year EFS (ACS10 score −2): 0.3251
- 3-year OS (ACS10 score −2): 0.5632
- 4-year EFS (ACS10 score −2): 0.3112
- 4-year OS (ACS10 score −2): 0.5546
- 5-year EFS (ACS10 score −2): 0.3037
- 5-year OS (ACS10 score −2): 0.5546
- 3-year EFS (ACS10 score −3): 0.2202
- 3-year OS (ACS10 score −3): 0.4846
- 4-year EFS (ACS10 score −3): 0.2083
- 4-year OS (ACS10 score −3): 0.4756
- 5-year EFS (ACS10 score −3): 0.2020
- 5-year OS (ACS10 score −3): 0.4756
- 3-year EFS (ACS10 score −5): 0.0743
- 3-year OS (ACS10 score −5): 0.3280
- 4-year EFS (ACS10 score −5): 0.0683
- 4-year OS (ACS10 score −5): 0.3197
- 5-year EFS (ACS10 score −5): 0.0652
- 5-year OS (ACS10 score −5): 0.3197
- Event-free Survival 5 years (High ACS10 score group): 0.712 ± 0.063
- Overall Survival 5 years (High ACS10 score group): 0.829 ± 0.052
- Event-free Survival 5 years (Low ACS10 score group): 0.421 ± 0.08
- Overall Survival 5 years (Low ACS10 score group): 0.579 ± 0.08
- 5 year EFS: 42%
- five-year OS: 57%
- MRDIND1 Negative (<0.1%): 49^+
- MRDIND1 Positive (>=0.1%): 38^+
- 3-year EFS, model estimate [1]: 89.9%
- 3-year OS, model estimate [1]: 90.7%
- 3-year EFS, model estimate [2]: 7.4%
- 3-year OS, model estimate [2]: 32.8%
- Event-free Survival 5 years (probability, whole arm): 0.591 ± 0.0518
- Overall Survival 5 years (probability, whole arm): 0.724 ± 0.047
- EFS HR, low-ACS10 vs high-ACS10 score: 2.81
- OS HR, low-ACS10 vs high-ACS10 score: 2.98
- EFS HR for each one-point increase in ACS10: 0.70

Compound: Nc1ccn([C@@H]2O[C@H](CO)[C@@H](O)[C@@H]2O)c(=O)n1 [HDAC, cytarabine]
- 3-year EFS (ACS10 score 0): 0.6070
- 3-year OS (ACS10 score 0): 0.6946
- 4-year EFS (ACS10 score 0): 0.5942
- 4-year OS (ACS10 score 0): 0.6875
- 5-year EFS (ACS10 score 0): 0.5872
- 5-year OS (ACS10 score 0): 0.6875
- 3-year EFS (ACS10 score 1): 0.6247
- 3-year OS (ACS10 score 1): 0.7260
- 4-year EFS (ACS10 score 1): 0.6122
- 4-year OS (ACS10 score 1): 0.7194
- 5-year EFS (ACS10 score 1): 0.6053
- 5-year OS (ACS10 score 1): 0.7194
- 3-year EFS (ACS10 score 2): 0.6418
- 3-year OS (ACS10 score 2): 0.7550
- 4-year EFS (ACS10 score 2): 0.6297
- 4-year OS (ACS10 score 2): 0.7489
- 5-year EFS (ACS10 score 2): 0.6231
- 5-year OS (ACS10 score 2): 0.7489
- 3-year EFS (ACS10 score 3): 0.6585
- 3-year OS (ACS10 score 3): 0.7816
- 4-year EFS (ACS10 score 3): 0.6468
- 4-year OS (ACS10 score 3): 0.7760
- 5-year EFS (ACS10 score 3): 0.6403
- 5-year OS (ACS10 score 3): 0.7760
- 3-year EFS (ACS10 score 4): 0.6747
- 3-year OS (ACS10 score 4): 0.8058
- 4-year EFS (ACS10 score 4): 0.6633
- 4-year OS (ACS10 score 4): 0.8007
- 5-year EFS (ACS10 score 4): 0.6570
- 5-year OS (ACS10 score 4): 0.8007
- 3-year EFS (ACS10 score 5): 0.6903
- 3-year OS (ACS10 score 5): 0.8278
- 4-year EFS (ACS10 score 5): 0.6793
- 4-year OS (ACS10 score 5): 0.8232
- 5-year EFS (ACS10 score 5): 0.6732
- 5-year OS (ACS10 score 5): 0.8232
- 3-year EFS (ACS10 score −1): 0.5889
- 3-year OS (ACS10 score −1): 0.6609
- 4-year EFS (ACS10 score −1): 0.5758
- 4-year OS (ACS10 score −1): 0.6533
- 5-year EFS (ACS10 score −1): 0.5686
- 5-year OS (ACS10 score −1): 0.6533
- 3-year EFS (ACS10 score −2): 0.5703
- 3-year OS (ACS10 score −2): 0.6251
- 4-year EFS (ACS10 score −2): 0.5569
- 4-year OS (ACS10 score −2): 0.6170
- 5-year EFS (ACS10 score −2): 0.5496
- 5-year OS (ACS10 score −2): 0.6170
- 3-year EFS (ACS10 score −3): 0.5513
- 3-year OS (ACS10 score −3): 0.5873
- 4-year EFS (ACS10 score −3): 0.5377
- 4-year OS (ACS10 score −3): 0.5788
- 5-year EFS (ACS10 score −3): 0.5302
- 5-year OS (ACS10 score −3): 0.5788
- 3-year EFS (ACS10 score −5): 0.5123
- 3-year OS (ACS10 score −5): 0.5073
- 4-year EFS (ACS10 score −5): 0.4983
- 4-year OS (ACS10 score −5): 0.4983
- 5-year EFS (ACS10 score −5): 0.4906
- 5-year OS (ACS10 score −5): 0.4983
- Event-free Survival 5 years (High ACS10 score group): 0.631 ± 0.074
- Overall Survival 5 years (High ACS10 score group): 0.743 ± 0.067
- Event-free Survival 5 years (Low ACS10 score group): 0.548 ± 0.089
- Overall Survival 5 years (Low ACS10 score group): 0.634 ± 0.088
- 5 year EFS: 55%
- five-year OS: 63%
- MRDIND1 Negative (<0.1%): 43^+
- MRDIND1 Positive (>=0.1%): 28^+
- 3-year EFS, model estimate [1]: 69.0%
- 3-year OS, model estimate [1]: 82.8%
- 3-year EFS, model estimate [2]: 51.2%
- 3-year OS, model estimate [2]: 50.7%
- Event-free Survival 5 years (probability, whole arm): 0.597 ± 0.0569
- Overall Survival 5 years (probability, whole arm): 0.699 ± 0.0537
- EFS HR, low-ACS10 vs high-ACS10 score: 1.28
- OS HR, low-ACS10 vs high-ACS10 score: 1.56
- EFS HR for each one-point increase in ACS10: 0.92
